This is an account of results in patent publication US20210147343A1 (priority 2018, published 2021).

In one experiment the test system is Male Sprague-Dawley rats. In words: Hot plate assay. Type of experiment: in vivo. The following applies: rat, SC, hotplate 52 degrees centigrade, FIG. 1. On the procedure:
Male Sprague-Dawley rats weighing 275-300 grams were used in the study, n=8-10 per group. Animals are injected SC with 0.9% normal saline solution. At 15, 45, and 80 min after the injection, animals were placed onto a hotplate set to 52 degrees centigrade, and baseline latency is recorded (baseline latency=average time to 2nd withdrawal response consisting of either a lick of a rear paw, shaking a rear paw, backwards walking or jumping). A day later animals were injected SC with test compounds either in vehicle solution, or with a mix of compounds in solution. Next the test latency was recorded (test latency=time to withdrawal on the hotplate measured at 15, 45, 80, 120, 180 and 240 min using the procedure described). Times were then converted to % maximum possible effect (% MPE)=(test_latecy−baseline_latency)/(30 sec-baseline_latency); where 30 sec is the cutoff where the animal is removed if no response ifs observed as it is the time point at which injury is expected to occur.

In another experiment the target is mu opioid receptor (MOR) (Homo sapiens, UniProt P35372). Put plainly: MOR cAMP agonist assay.
For experiment [1], the target named is T1, kappa opioid receptor (KOR) (Homo sapiens, UniProt P41145).
T1 construct: host or cells: CHO-K1
In words: cell-based. The following applies: kOR cAMP IC50, CHO-K1 cells expressing kOR; after activation with dynorphin B. The text has this:
KOR cAMP Antagonist Assay

Each structure is given as a SMILES string.

Chain of mu opioid receptor (MOR) (P35372 whole entry): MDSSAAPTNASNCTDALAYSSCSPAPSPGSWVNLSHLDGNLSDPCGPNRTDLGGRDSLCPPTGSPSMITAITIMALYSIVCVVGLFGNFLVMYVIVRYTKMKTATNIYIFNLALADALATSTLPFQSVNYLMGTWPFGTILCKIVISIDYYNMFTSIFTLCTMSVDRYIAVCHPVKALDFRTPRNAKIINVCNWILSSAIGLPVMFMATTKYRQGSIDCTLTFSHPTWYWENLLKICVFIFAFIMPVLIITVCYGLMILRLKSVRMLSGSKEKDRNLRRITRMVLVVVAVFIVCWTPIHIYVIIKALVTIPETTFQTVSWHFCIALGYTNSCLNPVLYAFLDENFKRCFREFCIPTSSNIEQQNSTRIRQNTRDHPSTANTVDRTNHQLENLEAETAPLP
T1 sequence (P41145 whole entry): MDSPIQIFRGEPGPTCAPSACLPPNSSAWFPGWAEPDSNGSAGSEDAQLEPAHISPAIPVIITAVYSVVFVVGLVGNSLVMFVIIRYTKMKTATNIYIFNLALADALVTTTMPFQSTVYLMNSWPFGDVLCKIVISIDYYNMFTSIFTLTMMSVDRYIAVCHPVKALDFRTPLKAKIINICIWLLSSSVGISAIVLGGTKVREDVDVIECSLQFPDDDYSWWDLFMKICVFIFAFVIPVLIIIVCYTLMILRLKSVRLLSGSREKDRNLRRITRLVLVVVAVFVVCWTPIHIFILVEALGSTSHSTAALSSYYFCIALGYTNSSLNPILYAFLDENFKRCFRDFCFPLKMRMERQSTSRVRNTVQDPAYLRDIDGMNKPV

As for `Cc1cc(O)ccc1C[C@@H](CNC(=O)[C@@H]1C[C@@]1(C)c1ccccc1)N(C)C` [Compound B-56, (1R,2R)—N—((S)-2-(dimethylamino)-3-(4-hydroxy-2-methylphenyl)propyl)-2-methyl-2-phenylcyclopropane-1-carboxamide], the “analgesic activity in the hotplate test (time to exhibit a withdrawal response)” value with Male Sprague-Dawley rats is “analgesic”. For the same compound, the EC50 at mu opioid receptor (MOR) is below 100 nM. This compound returned an IC50 in experiment [1] below 100 nM.
